From the NIST ThermoML archive (doi:10.1021/je700152c)

Experiment: molar heat capacity at saturation pressure; xn = mol fraction of the nth substance listed

CCCCn1cc[n+](C)c1.Cc1ccc(S(=O)(=O)[O-])cc1 [1-butyl-3-methylimidazolium tosylate] + O
Conditions | molar heat capacity [J/K/mol]
142.92 K, Crystal, x1 = 0.3 | 83.64
143.53 K, Metastable crystal, x1 = 0.83 | 208.04
143.99 K, Crystal, x1 = 0.83 | 206.74
145.47 K, Metastable crystal, x1 = 0.83 | 210.65
145.65 K, Crystal, x1 = 0.3 | 84.8
145.93 K, Crystal, x1 = 0.83 | 214.56
147.41 K, Metastable crystal, x1 = 0.83 | 213
147.86 K, Crystal, x1 = 0.83 | 217.43
148.38 K, Crystal, x1 = 0.3 | 85.96
149.35 K, Metastable crystal, x1 = 0.83 | 215.34
149.8 K, Crystal, x1 = 0.83 | 211.69
151.11 K, Crystal, x1 = 0.3 | 87.13
151.28 K, Metastable crystal, x1 = 0.83 | 217.95
151.76 K, Crystal, x1 = 0.83 | 207.26
153.22 K, Metastable crystal, x1 = 0.83 | 220.3
153.74 K, Crystal, x1 = 0.83 | 206.22
153.84 K, Crystal, x1 = 0.3 | 88.29
155.15 K, Metastable crystal, x1 = 0.83 | 222.64
155.72 K, Crystal, x1 = 0.83 | 206.74
156.57 K, Crystal, x1 = 0.3 | 89.45
157.08 K, Metastable crystal, x1 = 0.83 | 224.99
157.71 K, Crystal, x1 = 0.83 | 207.78
159.01 K, Metastable crystal, x1 = 0.83 | 227.6
159.29 K, Crystal, x1 = 0.3 | 90.61
159.7 K, Crystal, x1 = 0.83 | 209.09
160.94 K, Metastable crystal, x1 = 0.83 | 229.94
161.69 K, Crystal, x1 = 0.83 | 210.65
161.79 K, Crystal, x1 = 0.37 | 108.28
162.02 K, Crystal, x1 = 0.3 | 91.78
162.86 K, Metastable crystal, x1 = 0.83 | 232.29
163.68 K, Crystal, x1 = 0.83 | 212.47
164.74 K, Crystal, x1 = 0.3 | 92.94
164.78 K, Metastable crystal, x1 = 0.83 | 234.63
164.91 K, Crystal, x1 = 0.37 | 109.92
165.67 K, Crystal, x1 = 0.83 | 214.3
166.7 K, Metastable crystal, x1 = 0.83 | 236.72
167.46 K, Crystal, x1 = 0.3 | 94.21
167.65 K, Crystal, x1 = 0.83 | 215.86
167.87 K, Crystal, x1 = 0.37 | 111.44
168.62 K, Metastable crystal, x1 = 0.83 | 239.07
169.64 K, Crystal, x1 = 0.83 | 217.69
170.18 K, Crystal, x1 = 0.3 | 95.37
170.53 K, Metastable crystal, x1 = 0.83 | 240.89
170.82 K, Crystal, x1 = 0.37 | 112.95
171.63 K, Crystal, x1 = 0.83 | 219.51
172.45 K, Metastable crystal, x1 = 0.83 | 243.24
172.9 K, Crystal, x1 = 0.3 | 96.64
173.61 K, Crystal, x1 = 0.83 | 221.34
173.77 K, Crystal, x1 = 0.37 | 114.59
174.36 K, Metastable crystal, x1 = 0.83 | 245.32
175.6 K, Crystal, x1 = 0.83 | 223.42
175.61 K, Crystal, x1 = 0.3 | 97.91
176.27 K, Metastable crystal, x1 = 0.83 | 247.15
176.72 K, Crystal, x1 = 0.37 | 116.23
177.58 K, Crystal, x1 = 0.83 | 224.99
178.18 K, Metastable crystal, x1 = 0.83 | 248.97
178.32 K, Crystal, x1 = 0.3 | 99.28
179.56 K, Crystal, x1 = 0.83 | 227.07
179.67 K, Crystal, x1 = 0.37 | 118.38
180.09 K, Metastable crystal, x1 = 0.83 | 250.8
181.02 K, Crystal, x1 = 0.3 | 101.4
181.54 K, Crystal, x1 = 0.83 | 228.9
181.99 K, Metastable crystal, x1 = 0.83 | 252.62
182.6 K, Crystal, x1 = 0.37 | 121.41
183.52 K, Crystal, x1 = 0.83 | 230.72
183.7 K, Crystal, x1 = 0.3 | 104.68
183.9 K, Metastable crystal, x1 = 0.83 | 254.19
185.5 K, Crystal, x1 = 0.37 | 126.71
185.5 K, Crystal, x1 = 0.83 | 232.81
185.8 K, Metastable crystal, x1 = 0.83 | 256.01
186.36 K, Crystal, x1 = 0.3 | 107.53
187.47 K, Crystal, x1 = 0.83 | 234.9
